This passage reports IC50 and inhibition results from patent US20260000692A1, “Substituted N-(Pyridin-2-yl)Acetamide Derivatives as CDK12/13 Inhibitors” (Aurigene Oncology Limited, priority 2022, published 2026).

For orientation: IC50 means the concentration that gives 50% inhibition. The term inhibition denotes the relative decrease from the control value, in per cent.

SMILES strings stand for the structures. Where two headings read alike, the source gives them in different places.

This assay has as its target CDK12 (Homo sapiens, UniProt Q9NYV4). Put plainly: Biochemical assay for CDK12 (LANCE TR-FRET, IC50 determination). The note with it: for IC50: CDK12, IC50 class; for inhibition at 10 µM: read-out: CDK12 % Inhibition @ 10 μM. The method, boiled down: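 30 nM CDK12 phosphorylated 100 nM ULight-4E-BP1 (Thr37/Thr46) peptide at 100 µM ATP, as printed, in HEPES pH 7.5 buffer with MgCl2 and DTT. Compound and enzyme were preincubated 60 min, then reacted 60 min at room temperature before stopping with EDTA and Eu anti-phospho antibody. TR-FRET 665/615 ratio gave sigmoidal IC50 fits.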

Chain of CDK12 (Q9NYV4 whole entry): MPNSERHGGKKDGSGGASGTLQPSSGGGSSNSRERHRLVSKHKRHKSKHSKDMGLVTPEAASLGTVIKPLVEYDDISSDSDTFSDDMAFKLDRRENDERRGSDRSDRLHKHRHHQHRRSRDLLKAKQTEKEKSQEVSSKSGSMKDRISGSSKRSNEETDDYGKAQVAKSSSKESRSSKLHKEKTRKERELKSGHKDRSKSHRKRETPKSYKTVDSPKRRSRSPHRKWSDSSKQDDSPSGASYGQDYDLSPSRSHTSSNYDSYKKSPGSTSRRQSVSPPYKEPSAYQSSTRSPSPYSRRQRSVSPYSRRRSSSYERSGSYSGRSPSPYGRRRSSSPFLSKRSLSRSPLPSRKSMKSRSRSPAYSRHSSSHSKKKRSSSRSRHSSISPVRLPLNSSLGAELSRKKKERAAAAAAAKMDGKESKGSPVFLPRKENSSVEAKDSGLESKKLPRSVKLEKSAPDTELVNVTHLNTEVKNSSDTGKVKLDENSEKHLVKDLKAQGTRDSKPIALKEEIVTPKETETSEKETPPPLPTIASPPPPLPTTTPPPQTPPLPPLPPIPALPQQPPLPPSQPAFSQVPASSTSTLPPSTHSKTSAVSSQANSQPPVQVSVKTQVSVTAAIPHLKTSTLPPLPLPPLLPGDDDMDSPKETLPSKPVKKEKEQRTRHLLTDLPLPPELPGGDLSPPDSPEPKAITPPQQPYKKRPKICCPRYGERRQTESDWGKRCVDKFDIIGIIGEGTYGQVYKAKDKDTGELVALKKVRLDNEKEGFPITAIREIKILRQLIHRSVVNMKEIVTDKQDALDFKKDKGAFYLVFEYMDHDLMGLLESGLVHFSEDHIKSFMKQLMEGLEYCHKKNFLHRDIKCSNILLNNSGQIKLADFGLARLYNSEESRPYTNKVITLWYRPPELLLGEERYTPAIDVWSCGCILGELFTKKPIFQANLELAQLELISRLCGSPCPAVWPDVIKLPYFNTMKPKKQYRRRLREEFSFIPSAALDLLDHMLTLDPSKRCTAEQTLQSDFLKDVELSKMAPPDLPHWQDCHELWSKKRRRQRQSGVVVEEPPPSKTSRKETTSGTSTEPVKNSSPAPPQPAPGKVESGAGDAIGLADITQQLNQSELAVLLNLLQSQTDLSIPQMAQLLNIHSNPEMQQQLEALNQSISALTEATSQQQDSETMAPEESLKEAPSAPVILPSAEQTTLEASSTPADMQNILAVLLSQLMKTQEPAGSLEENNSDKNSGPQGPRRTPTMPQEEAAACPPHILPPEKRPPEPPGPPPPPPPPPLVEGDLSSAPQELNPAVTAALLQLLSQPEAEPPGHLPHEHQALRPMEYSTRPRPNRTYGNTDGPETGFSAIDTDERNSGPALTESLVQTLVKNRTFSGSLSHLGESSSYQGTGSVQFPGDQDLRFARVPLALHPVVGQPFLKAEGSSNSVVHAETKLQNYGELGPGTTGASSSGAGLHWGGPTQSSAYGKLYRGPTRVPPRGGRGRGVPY
Chain of CDK12 (O75909 whole entry partner): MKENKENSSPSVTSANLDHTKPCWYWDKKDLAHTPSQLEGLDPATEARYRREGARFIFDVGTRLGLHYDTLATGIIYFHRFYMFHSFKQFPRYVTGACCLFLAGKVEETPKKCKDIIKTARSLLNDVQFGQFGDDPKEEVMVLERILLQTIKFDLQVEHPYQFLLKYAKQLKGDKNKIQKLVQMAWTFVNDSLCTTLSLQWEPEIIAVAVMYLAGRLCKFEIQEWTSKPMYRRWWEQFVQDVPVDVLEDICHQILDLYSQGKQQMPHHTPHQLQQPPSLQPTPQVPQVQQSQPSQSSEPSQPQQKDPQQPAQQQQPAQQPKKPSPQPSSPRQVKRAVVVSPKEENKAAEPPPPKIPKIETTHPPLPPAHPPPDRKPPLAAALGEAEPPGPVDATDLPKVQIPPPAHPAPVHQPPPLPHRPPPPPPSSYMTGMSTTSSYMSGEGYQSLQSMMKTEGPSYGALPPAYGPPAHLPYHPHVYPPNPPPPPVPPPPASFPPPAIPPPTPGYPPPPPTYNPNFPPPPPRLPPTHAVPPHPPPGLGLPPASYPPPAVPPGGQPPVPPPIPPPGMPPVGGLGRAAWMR

As to `N#CN1CCC(c2ccc(CC(=O)Nc3cc(O[C@H]4CCOC4)c(Cl)cn3)cn2)CC1` [Compound 99, (S)-N-(5-chloro-4-((tetrahydrofuran-3-yl)oxy)pyridin-2-yl)-2-(6-(1-cyanopiperidin-4-yl)pyridin-3-yl)acetamide], under “read-out: IC50 μM (in range)”, the IC50 was 0.01 to 0.1 µM. The inhibition at 10 µM (compound at 10 μM) is 95%.
Turning to `CN(C)C(=O)Oc1cc(NC(=O)Cc2ccc(C3=CCN(C#N)CC3)nc2)ncc1Cl` [Compound 100, 5-chloro-2-(2-(1′-cyano-1′,2′,3′,6′-tetrahydro-[2,4′-bipyridin]-5-yl)acetamido)pyridin-4-yl dimethylcarbamate], the inhibition at 10 µM stood at 77%. This molecule yielded a half-maximal inhibitory concentration (IC50) (IC50 μM (in range)) of 0.01 to 0.1 µM.
Consider `CN(C)C(=O)Oc1cc(NC(=O)Cc2ccc(C3CCN(C#N)CC3)nc2)ncc1Cl` [Compound 101, 5-chloro-2-(2-(6-(1-cyanopiperidin-4-yl)pyridin-3-yl)acetamido)pyridin-4-yl dimethylcarbamate], for which the inhibition at 10 µM worked out at 86%. The molecule further yielded an IC50 (IC50 μM (in range)) of over 0.1 µM.
Consider `N#CN1CCC=C(c2ccc(CC(=O)Nc3ccccn3)cn2)C1` [Compound 102, 2-(1′-cyano-1′,2′,5′,6′-tetrahydro-[2,3′-bipyridin]-5-yl)-N-(pyridin-2-yl)acetamide], for which the 50% inhibitory concentration (IC50) (read-out: IC50 μM (in range)) was over 0.1 µM. The inhibition at 10 µM (compound at 10 μM) turned out to be 87%.
Taken in the same sequence, the figures for `N#CN1CCC=C(c2ccc(CC(=O)Nc3ccc(F)cn3)cn2)C1` [Compound 103, 2-(1′-cyano-1′,2′,5′,6′-tetrahydro-[2,3′-bipyridin]-5-yl)-N-(5-fluoropyridin-2-yl)acetamide] were 0.01 to 0.1 µM and 98%.
Regarding `Cc1ccc(NC(=O)Cc2ccc(C3=CCCN(C#N)C3)nc2)nc1` [Compound 104, 2-(1′-cyano-1′,2′,5′,6′-tetrahydro-[2,3′-bipyridin]-5-yl)-N-(5-methylpyridin-2-yl)acetamide], for the setting “read-out: IC50 μM (in range)”, the concentration for half-maximal inhibition (IC50) lay within 0.01 to 0.1 µM. The inhibition at 10 µM (compound at 10 μM) stood at 79%.
For `N#CN1CCC=C(c2ccc(CC(=O)Nc3cc(Cl)c(Cl)cn3)cn2)C1` [Compound 105, 2-(1′-cyano-1′,2′,5′,6′-tetrahydro-[2,3′-bipyridin]-5-yl)-N-(4,5-dichloropyridin-2-yl)acetamide], in that order: under 0.01 µM and 100%.
For `N#CN1CCC=C(c2ccc(CC(=O)Nc3ccc(C4CC4)cn3)cn2)C1` [Compound 106, 2-(1′-cyano-1′,2′,5′,6′-tetrahydro-[2,3′-bipyridin]-5-yl)-N-(5-cyclopropylpyridin-2-yl)acetamide], for the setting “read-out: IC50 μM (in range)”, the IC50 is under 0.01 µM. Further, the inhibition at 10 µM (compound at 10 μM) worked out at 90%.
For `CSc1ccc(NC(=O)Cc2ccc(C3=CCCN(C#N)C3)nc2)nc1` [Compound 107, 2-(1′-cyano-1′,2′,5′,6′-tetrahydro-[2,3′-bipyridin]-5-yl)-N-(5-(methylthio)pyridin-2-yl)acetamide], in that order: 0.01 to 0.1 µM and 95%.
On to `N#CN1CCC=C(c2ccc(CC(=O)Nc3cnc(Cl)cn3)cn2)C1` [Compound 108, N-(5-chloropyrazin-2-yl)-2-(1′-cyano-1′,2′,5′,6′-tetrahydro-[2,3′-bipyridin]-5-yl)acetamide], for which the IC50 (read-out: IC50 μM (in range)) was 0.01 to 0.1 µM. The inhibition at 10 µM (compound at 10 μM) came out at 85%.
In the case of `CN(C)c1cc(NC(=O)Cc2ccc(C3=CCCN(C#N)C3)nc2)ncc1Cl` [Compound 109, N-(5-chloro-4-(dimethylamino)pyridin-2-yl)-2-(1′-cyano-1′,2′,5′,6′-tetrahydro-[2,3′-bipyridin]-5-yl)acetamide], the half-inhibitory concentration (IC50) (read-out: IC50 μM (in range)) was in the range of 0.01 to 0.1 µM. Moreover, the inhibition at 10 µM (compound at 10 μM) is 89%.
On to `COc1cc(NC(=O)C(C)(C)c2ccc(C3=CCCN(C#N)C3)nc2)ncc1Cl` [Compound 110, N-(5-chloro-4-methoxypyridin-2-yl)-2-(1′-cyano-1′,2′,5′,6′-tetrahydro-[2,3′-bipyridin]-5-yl)-2-methylpropanamide], for which, for the setting “compound at 10 μM”, the inhibition at 10 µM is 57%.
As to `COc1cc(NC(=O)Cc2ccc(C3=CCCN(C#N)C3)cn2)ncc1Cl` [Compound 111, N-(5-chloro-4-methoxypyridin-2-yl)-2-(1′-cyano-1′,2′,5′,6′-tetrahydro-[3,3′-bipyridin]-6-yl)acetamide], the IC50 (read-out: IC50 μM (in range)) fell in the range of 0.01 to 0.1 µM. The inhibition at 10 µM (compound at 10 μM) stood at 94%.
As to `COc1cc(NC(=O)Cc2ccc(C3=CCCN(C#N)C3)cc2Cl)ncc1Cl` [Compound 112, 2-(2-chloro-4-(1-cyano-1,2,5,6-tetrahydropyridin-3-yl)phenyl)-N-(5-chloro-4-methoxypyridin-2-yl)acetamide], the IC50 (read-out: IC50 μM (in range)) lay in the range of 0.01 to 0.1 µM. Besides, the inhibition at 10 µM (compound at 10 μM) was found to be 90%.
For the molecule `COc1cc(NC(=O)Cc2ccc(C3=CCCN(C#N)C3)cc2F)ncc1Cl` [Compound 113, N-(5-chloro-4-methoxypyridin-2-yl)-2-(4-(1-cyano-1,2,5,6-tetrahydropyridin-3-yl)-2-fluorophenyl)acetamide], the IC50 (read-out: IC50 μM (in range)) lay within 0.01 to 0.1 µM. Also, under “compound at 10 μM”, the inhibition at 10 µM stood at 92%.
Turning to `COc1cc(NC(=O)Cc2ccc(C3=CCCN(C#N)C3)cc2)ncc1Cl` [Compound 114, N-(5-chloro-4-methoxypyridin-2-yl)-2-(4-(1-cyano-1,2,5,6-tetrahydropyridin-3-yl)phenyl)acetamide], under “read-out: IC50 μM (in range)”, the IC50 was under 0.01 µM. Further, the inhibition at 10 µM (compound at 10 μM) turned out to be 91%.
Take `COc1cc(NC(=O)Cc2ccc(C3=CC4CN(C#N)CC4C3)cc2)ncc1Cl` (centres unmarked) [Compound 115, N-(5-chloro-4-methoxypyridin-2-yl)-2-(4-(2-cyano-1,2,3,3a,4,6a-hexahydrocyclopenta[c]pyrrol-5-yl)phenyl)acetamide]: the half-maximal inhibitory concentration (IC50) (read-out: IC50 μM (in range)) was in the range of 0.01 to 0.1 µM. Also, the inhibition at 10 µM (compound at 10 μM) was found to be 98%.
For `COc1cc(NC(=O)Cc2ccc(C3=CCCN(C#N)C3)c(OC)c2)ncc1Cl` [Compound 116, N-(5-chloro-4-methoxypyridin-2-yl)-2-(4-(1-cyano-1,2,5,6-tetrahydropyridin-3-yl)-3-methoxyphenyl)acetamide], the inhibition at 10 µM (compound at 10 μM) turned out to be 23%.
For the molecule `COc1cc(NC(=O)Cc2cnc(C3=CCCN(C#N)C3)c(OC)c2)ncc1Cl` [Compound 117, N-(5-chloro-4-methoxypyridin-2-yl)-2-(1′-cyano-3-methoxy-1′,2′,5′,6′-tetrahydro-[2,3′-bipyridin]-5-yl)acetamide], the IC50 (read-out: IC50 μM (in range)) was under 0.01 µM. Moreover, the inhibition at 10 µM (compound at 10 μM) was found to be 88%.
On to `CN1CC[C@H](Oc2cc(NC(=O)Cc3ccc(C4CCN(C#N)CC4)nc3)ncc2Cl)C1` [Compound 118, (S)-N-(5-chloro-4-((1-methylpyrrolidin-3-yl)oxy)pyridin-2-yl)-2-(6-(1-cyanopiperidin-4-yl)pyridin-3-yl)acetamide], for which, where the note is “read-out: IC50 μM (in range)”, the IC50 is over 0.1 µM. Moreover, the inhibition at 10 µM (compound at 10 μM) was found to be 81%.
In the case of `CN1CC[C@@H](Oc2cc(NC(=O)Cc3ccc(C4CCN(C#N)CC4)nc3)ncc2Cl)C1` [Compound 119, (R)-N-(5-chloro-4-((1-methylpyrrolidin-3-yl)oxy)pyridin-2-yl)-2-(6-(1-cyanopiperidin-4-yl)pyridin-3-yl)acetamide], the 50% inhibitory concentration (IC50) (read-out: IC50 μM (in range)) was over 0.1 µM. Further, where the note is “compound at 10 μM”, the inhibition at 10 µM came out at 78%.
Take `COc1cc(NC(=O)Cc2cnc(C3=CCN(C#N)CC3)c(OC)c2)ncc1Cl` [Compound 120, N-(5-chloro-4-methoxypyridin-2-yl)-2-(1′-cyano-3-methoxy-1′,2′,3′,6′-tetrahydro-[2,4′-bipyridin]-5-yl)acetamide]: the IC50 (read-out: IC50 μM (in range)) is under 0.01 µM. The inhibition at 10 µM (compound at 10 μM) was 89%.
For `COc1cc(NC(=O)Cc2cnc(C3CCN(C#N)CC3)c(OC)c2)ncc1Cl` [Compound 121, N-(5-chloro-4-methoxypyridin-2-yl)-2-(6-(1-cyanopiperidin-4-yl)-5-methoxypyridin-3-yl)acetamide], in that order: under 0.01 µM and 82%.
For `COc1cc(CC(=O)Nc2cc(O[C@@H]3CCOC3)c(Cl)cn2)cnc1C1=CCN(C#N)CC1` [Compound 122, (R)-N-(5-chloro-4-((tetrahydrofuran-3-yl)oxy)pyridin-2-yl)-2-(1′-cyano-3-methoxy-1′,2′,3′,6′-tetrahydro-[2,4′-bipyridin]-5-yl)acetamide], the IC50 (read-out: IC50 μM (in range)) was under 0.01 µM. Further, the inhibition at 10 µM (compound at 10 μM) stood at 90%.
Regarding `COc1cc(CC(=O)Nc2cc(O[C@@H]3CCOC3)c(Cl)cn2)cnc1C1CCN(C#N)CC1` [Compound 123, (R)-N-(5-chloro-4-((tetrahydrofuran-3-yl)oxy)pyridin-2-yl)-2-(6-(1-cyanopiperidin-4-yl)-5-methoxypyridin-3-yl)acetamide], the half-maximal inhibitory concentration (IC50) (read-out: IC50 μM (in range)) is under 0.01 µM. Besides, the inhibition at 10 µM (compound at 10 μM) stood at 86%.
For the molecule `COc1cc(NC(=O)Cc2ccc(C3CCN(C#N)CC3)nc2)ncc1C1CC1` [Compound 124, 2-(6-(1-cyanopiperidin-4-yl)pyridin-3-yl)-N-(5-cyclopropyl-4-methoxypyridin-2-yl)acetamide], under “read-out: IC50 μM (in range)”, the IC50 is over 0.1 µM. The inhibition at 10 µM (compound at 10 μM) turned out to be 86%.
For `CN1CCC[C@H](Oc2cc(NC(=O)Cc3ccc(C4CCN(C#N)CC4)nc3)ncc2Cl)C1` [Compound 125, (S)-N-(5-chloro-4-((1-methylpiperidin-3-yl)oxy)pyridin-2-yl)-2-(6-(1-cyanopiperidin-4-yl)pyridin-3-yl)acetamide], in that order: over 0.1 µM and 72%.
For `CN1CCC[C@@H](Oc2cc(NC(=O)Cc3ccc(C4CCN(C#N)CC4)nc3)ncc2Cl)C1` [Compound 126, (R)-N-(5-chloro-4-((1-methylpiperidin-3-yl)oxy)pyridin-2-yl)-2-(6-(1-cyanopiperidin-4-yl)pyridin-3-yl)acetamide], the half-maximal inhibitory concentration (IC50) (read-out: IC50 μM (in range)) is over 0.1 µM. Further, the inhibition at 10 µM (compound at 10 μM) amounted to 52%.
For the molecule `COc1cc(NC(=O)Cc2ccc(C3=CCN(C#N)CC3)cn2)ncc1Cl` [Compound 127, N-(5-chloro-4-methoxypyridin-2-yl)-2-(1′-cyano-1′,2′,3′,6′-tetrahydro-[3,4′-bipyridin]-6-yl)acetamide], under “read-out: IC50 μM (in range)”, the IC50 fell in the range of 0.01 to 0.1 µM. Besides, the inhibition at 10 µM (compound at 10 μM) stood at 86%.
